Measurements taken from US7855300B2, “Bis(trimethylsilyl)phenyl compound or salt thereof, and use thereof” (Taiho Pharmaceutical Co., Ltd., priority 2007, dated 2010).

Assays:
[1] = tested on: JHH-7 (human hepatocellular carcinoma cell lines); assay: Antitumor effect in JHH-7 orthotopic liver transplantation model; format: in vivo, male nude mice (BALB/cA Jcl-nu); conditions: 16 mg/kg orally once per day for 14 days; tumor weight on 15th day; T/C×100
Method: RARα high expression cells, i.e., human hepatocellular carcinoma cell lines JHH-7, were implanted in the outside left lobe of the liver of male nude mice (BALB/cA Jcl-nu; CLEA Japan, Inc.) under Nembutal anesthesia in an amount of 1×10^6 cells (0.02 ml) per mouse. On the 11th to 14th day after implantation, the mice were divided into groups, each consisting of seven mice. The compounds of the present invention and the reference compound TAC-101 were suspended in 0.5% HPMC and 1.6 mg/ml solution was orally administered to the mice at a liquid dose of 10 ml/kg, namely, at a dose of 16 mg/kg, once per day for 14 days. On the 15th day after the start of administration, the mice were exsanguinated to death under ether anesthesia. Tumors formed in the outside left lobe of the liver were extracted, and the tumor weight was measured to assess the antitumor effect. The antitumor effect was evaluated by calculating the tumor growth rate (%) using the following equation. The antitumor effect of each compound was analyzed by Student's test and statistical significance was determined. Tumor growth rate(%)=T/C×100 T: Average tumor weight in the groups administered with the test compounds C: Average tumor weight in the groups not administered with test compounds

[2] = Rat toxicity test, oral administration for 4 weeks; format: in vivo, male SD rats; design: key: +: recognized; −: not observed
Method: The compounds of the present invention and the reference compound TAC-101 were orally administered to male SD rats (CLEA Japan, Inc.) for 4 weeks. The dosage of each compound was 6 mg/kg or 24 mg/kg per rat. Differences in toxic symptoms were compared and studied.

[3] = tested on: Human prostatic carcinoma cell lines TSU-Pr1; assay: Growth inhibitory and differentiation-inducing effect on prostate cancer cells; format: cell-based; conditions: 10 μM, IGF-I 10 ng/ml; for Cytostatic activity (crystal violet staining): 7th day after culturing, FIG. 5; for Change in cell shape (differentiation-inducing activity): after three days, FIG. 4
Method: Human prostatic carcinoma cell lines TSU-Pr1 prepared in RPMI1640 culture medium containing 2% fetal bovine serum were plated into a 24-well culture plate at a cell density of 3×10^3 cells per well. The next day, IGF-I (10 ng/ml) was added as a growth factor, and the cells were treated with Compounds 2 and 3 of the present invention and the reference compound TAC-101 each in an amount of 10 μM. Change in cell shape after three days was observed. Moreover, on the 7th day after culturing, the cells were fixed with 25% glutaraldehyde solution. Cytostatic activity was determined by the crystal violet staining method, and the statistical significance of the cytostatic activity was analyzed by Student's test. […] In the Control group that was not treated with medicine, a cobblestone-like shape and vigorous cell division were observed. Such cell shape is characteristic of epithelioid cancer cells.

[4] = tested on: Human prostatic carcinoma cell lines TSU-Pr1; assay: Cancer malignancy-reducing effect (tumorigenicity of pretreated TSU-Pr1 cells implanted in nude mice); format: in vivo, male nude mice (BALB/cA Jcl-nu); conditions: cells treated 72 hours, six subcutaneous sites, 26th day after implantation
Method: Human prostatic carcinoma cell lines TSU-Pr1 were treated with Compound 3 of the present invention and the reference compound TAC-101 for 72 hours. The cells were subcutaneously implanted into male nude mice (BALB/cA Jcl-nu; CLEA Japan, Inc.) at six sites in total per mouse. On the 26th day after implantation, the rate of subcutaneous tumor formation was observed and the effect of reducing cancer malignancy was evaluated. Statistical significance was analyzed by Wilcoxon test.

[5] = tested on: non-small cell lung cancer; conditions: phase I study, Non-Patent Document 5; cited from earlier work

Structure (SMILES) | Tumor Growth Rate (%) [1] | Alopecia Symptom ([2]; 6 mg/kg) | Endocortical Proliferation ([2]; 6 mg/kg) | Alopecia Symptom ([2]; 24 mg/kg) | Endocortical Proliferation ([2]; 24 mg/kg) | Cytostatic activity (crystal violet staining) [3] | Change in cell shape (differentiation-inducing activity) [3] | Graft Survival (%) [4] | Tumor Formation [4] | Clinical response [5] | Side effects [5] | melting point
C/C(=C\C(=O)O)c1ccc(NC(=O)c2cc([Si](C)(C)C)cc([Si](C)(C)C)c2)cc1F [Compound 11, (E)-3-[4-[[3,5-Bis(trimethylsilyl)benzoyl]amino]-2-fluorophenyl]-2-butenoic acid] | 36% |  |  |  |  |  |  |  |  |  |  | 
C/C(=C\c1ccc(NC(=O)c2cc([Si](C)(C)C)cc([Si](C)(C)C)c2)cc1F)C(=O)O [Compound 14, (E)-3-[4-[[3,5-Bis(trimethylsilyl)benzoyl]amino]-2-fluorophenyl]-2-methylacrylic acid] |  | − | − | − | − |  |  |  |  |  |  | 
C[Si](C)(C)c1cc(C(=O)Nc2ccc(/C=C/C(=O)O)cc2)cc([Si](C)(C)C)c1 [Compound 3, 4-[[3,5-Bis(trimethylsilyl)benzoyl]amino]cinnamic acid] | 25% | − | − | − | − | dramatic cytostatic effect was recognized | dramatic change was recognized in the shape of neuroid cells | 17% | 1/6 |  |  | 
C[Si](C)(C)c1cc(C(=O)Nc2ccc(/C=C/C(=O)O)c(F)c2)cc([Si](C)(C)C)c1 [Compound 2, 4-[[3,5-Bis(trimethylsilyl)benzoyl]amino]-2-fluorocinnamic acid] | 21% | − | − | − | − | dramatic cytostatic effect was recognized | dramatic change was recognized in the shape of neuroid cells |  |  |  |  | 
C[Si](C)(C)c1cc(C(=O)Nc2ccc(C(=O)O)cc2)cc([Si](C)(C)C)c1 [TAC-101, 4-[3,5-bis(trimethylsilyl)benzamido]benzoic acid, reference compound] | 52% | + | − | + | + |  | no significant change was recognized in the shape | 67% | 4/6 | complete remission cases were reported | symptoms (skin disorders) similar to hypervitaminosis A were observed | 
C/C(=C\C(=O)O)c1ccc(NC(=O)c2cc([Si](C)(C)C)cc([Si](C)(C)C)c2)cc1 [Compound 6, (E)-3-[4-[[3,5-Bis(trimethylsilyl)benzoyl]amino]phenyl]-2-butenoic acid] | 31% |  |  |  |  |  |  |  |  |  |  | 
C[Si](C)(C)c1cc(C(=O)Nc2ccc(/C=C/C(=O)O)cn2)cc([Si](C)(C)C)c1 |  |  |  |  |  |  |  |  |  |  |  | 302 °C (dec.)
